Experimental findings from US8637523B2, “Compounds for the reduction of beta-amyloid production” (Bristol-Myers Squibb Company, priority 2010, dated 2014) are described below.

The IC50 is the concentration needed to halve the response being measured.

In this experiment the test system is Aβ42. Description: Cellular assay for inhibition of Aβ1-42 production (H4 APP751 SWE clone 8.20). The settings on record: H4 APP751 SWE clone 8.20 cells, 19 h incubation. It counts as cell-based. The procedure: Cellular Assays for Inhibition of Aβ1-40 and Aβ1-42 Production
H4 cells stably transfected with APP751 containing the Swedish mutation (H4 APP751 SWE clone 8.20, developed at BMS) were maintained in log phase through twice weekly passage at a 1:20 split. […] Following incubation for 19 h in 5% CO2 at 37° C., plates were briefly centrifuged (1000 rpm, 5 min). A 10 μl aliquot from each well was transferred to a second assay plate (Costar 3709) for Aβ40 measurements. Antibody cocktails were freshly prepared by dilution into 40 mM Tris-HCl (pH 7.4) with 0.2% BSA and added to assay plates. For Aβ42 measurements, antibodies specific for the Aβ42 neoepitope (565, developed at BMS; conjugated to the Wallac reagent (Perkin Elmer)) and the N-terminal sequence of Aβ peptide (26D6, developed at SIBIA; conjugated to APC (Perkin Elmer)) were mixed and 20 μl of the mixture was added to each well of the incubated cell plate yielding a final concentration of 0.8 ng/well 565 and 75 ng/well 26D6. For the Aβ40 measurements, antibodies specific for the Aβ40 neoepitope (TSD, developed at BMS; conjugated to the Wallac reagent (Perkin Elmer)) and 26D6 as described above were mixed and 20 μl of the mixture was added to the 10 μl aliquots which had been removed previously from the cell plate yielding a final concentration of 1.6 ng/well TSD and 17.5 ng/well 26D6. Assay plates containing antibodies were sealed with aluminum foil and incubated overnight at 4° C. Signal was determined using a Viewlux counter (Perkin Elmer) and IC50 values determined using curve fitting in CurveMaster (Excel Fit based).

Setting [1] is: 19 h, read-out: Activity Rating (Aβ42 cellular IC50), class symbol.
[2] abbreviates: 19 h, unit inferred, read-out: Activity Rating (Aβ42 cellular IC50), numeric value.
Where [3] appears, read: read-out: Activity Rating (Aβ42 cellular IC50), class symbol.
[4] abbreviates: unit inferred, read-out: Activity Rating (Aβ42 cellular IC50), numeric value.

Read-outs that look alike come from different tables or passages of the source.

In the case of `Clc1cn(-c2ccc3cc2OCCCCNc2nc(nc4c2CCC4c2ccccc2)N3)cn1` (centres unmarked) [Example 12A, 7-(4-chloro-1H-imidazol-1-yl)-18-phenyl-10,11,12,13,14,16,17,18-octahydro-15,2-(azeno)-8,4-(metheno)cyclopenta[h][1,6,10,12]oxatriazacycloheptadecine], the IC50 under setting [1] was less than 10 nM.
Regarding `Cc1ncn(-c2ccc3cc2OCCCNc2nc(nc4c2CCC4c2ccc(F)cc2F)N3)n1` (centres unmarked) [Example 63B, 17-(2,4-difluorophenyl)-7-(3-methyl-1H-1,2,4-triazol-1-yl)-11,12,13,15,16,17-hexahydro-10H-14,2-(azeno)-8,4-(metheno)cyclopenta[g][1,5,9,11]oxatriazacyclohexadecine], the half-inhibitory concentration (IC50) under setting [2] stood at 25 nM.
In the case of `Cc1ncn(-c2ccc3cc2OCCCCNc2nc(nc4c2CN(C)CC4c2ccc(F)cc2)N3)n1` (racemic) [Example 70A, 19-(4-fluorophenyl)-17-methyl-7-(3-methyl-1H-1,2,4-triazol-1-yl)-11,12,13,14,16,17,18,19-octahydro-10H-15,2-(azeno)-8,4-(metheno)pyrido[3,4-h][1,6,10,12]oxatriazacycloheptadecine], the IC50 under setting [3] fell in the range of 10 to 100 nM.
On the same count and under the same terms, for `CN1CC=CCOc2cc(ccc2C#N)Nc2nc3c(c1n2)CCC3c1ccccc1` (centres unmarked) [Example 30B, (11E)-7-cyano-14-methyl-18-phenyl-10,13,14,16,17,18-hexahydro-15,2-(azeno)-8,4-(metheno)cyclopenta[h][1,6,10,12]oxatriazacycloheptadecine] the value was 10 to 100 nM.
Consider `CN1C/C=C\COc2cc(ccc2-n2cnc(Cl)c2)Nc2nc3c(c1n2)CCC3c1ccc(F)cc1F` (centres unmarked) [Example 18A, (11Z)-7-(4-chloro-1H-imidazol-1-yl)-18-(2,4-difluorophenyl)-14-methyl-10,13,14,16,17,18-hexahydro-15,2-(azeno)-8,4-(metheno)cyclopenta[h][1,6,10,12]oxatriazacycloheptadecine], for which the IC50 under setting [1] is less than 10 nM.
Take `Cc1ncn(-c2ccc3cc2OCC(O)CCNc2nc(nc4c2CCC4c2ccc(F)cc2)N3)n1` (single isomer, unassigned) [Example 72D, 18-(4-fluorophenyl)-7-(3-methyl-1H-1,2,4-triazol-1-yl)-10,11,12,13,14,16,17,18-octahydro-15,2-(azeno)-8,4-(metheno)cyclopenta[h][1,6,10,12]oxatriazacycloheptadecin-11(3H)-ol]: the half-inhibitory concentration (IC50) under setting [3] was less than 10 nM.
For the compound `CN1C/C=C\COc2cc(ccc2-n2cnc(Cl)c2)Nc2nc3c(c1n2)CCC3c1ccc(F)cc1F` (centres unmarked) [Example 18B, (11Z)-7-(4-chloro-1H-imidazol-1-yl)-18-(2,4-difluorophenyl)-14-methyl-10,13,14,16,17,18-hexahydro-15,2-(azeno)-8,4-(metheno)cyclopenta[h][1,6,10,12]oxatriazacycloheptadecine], the concentration for half-maximal inhibition (IC50) under setting [2] amounted to 47 nM.
Regarding “(11Z)-18-(2,4-difluorophenyl)-7-(5-methyl-1H-1,2,4-triazol-1-yl)-10,13,14,16,17,18-hexahydro-15,2-(azeno)-8,4-(metheno)cyclopenta[h][1,6,10,12]oxatriazacycloheptadecine [Example 53A]”, under setting [3], the 50% inhibitory concentration (IC50) is less than 10 nM.
As for `Cc1ncn(-c2ccc3cc2OCC(O)CCNc2nc(nc4c2CCC4c2ccc(F)cc2)N3)n1` (single isomer, unassigned) [Example 72A, 18-(4-fluorophenyl)-7-(3-methyl-1H-1,2,4-triazol-1-yl)-10,11,12,13,14,16,17,18-octahydro-15,2-(azeno)-8,4-(metheno)cyclopenta[h][1,6,10,12]oxatriazacycloheptadecin-11(3H)-ol], under setting [3], the half-maximal inhibitory concentration (IC50) was less than 10 nM.
`Cc1ncnn1-c1ccc2cc1OCC=CCNc1nc(nc3c1CCC3c1ccccc1)N2` (centres unmarked) [Example 43A, (11E)-7-(5-methyl-1H-1,2,4-triazol-1-yl)-18-phenyl-10,13,14,16,17,18-hexahydro-15,2-(azeno)-8,4-(metheno)cyclopenta[h][1,6,10,12]oxatriazacycloheptadecine]: the IC50 under setting [3] is less than 10 nM.
For `CN1CCCOc2cc(ccc2C#N)Nc2nc3c(c1n2)CCC3c1ccccc1` (stereo not drawn) [Example 31B, 7-cyano-β-methyl-17-phenyl-11,12,13,15,16,17-hexahydro-10H-14,2-(azeno)-8,4-(metheno)cyclopenta[g][1,5,9,11]oxatriazacyclohexadecine], the IC50 under setting [2] is 31 nM.
Regarding `N#Cc1ccc2cc1OCC(O)CCNc1nc(nc3c1CCC3c1ccc(F)cc1)N2` (single isomer, unassigned) [Example 73C, 7-cyano-18-(4-fluorophenyl)-10,11,12,13,14,16,17,18-octahydro-15,2-(azeno)-8,4-(metheno)cyclopenta[h][1,6,10,12]oxatriazacycloheptadecin-11(3H)-ol], under setting [3], the half-maximal inhibitory concentration (IC50) lay in the range of 10 to 100 nM.
As for `CN1C/C=C\COc2cc(ccc2C#N)Nc2nc3c(c1n2)CCC3c1ccc(F)cc1F` (centres unmarked) [Example 28A, (11Z)-7-cyano-18-(2,4-difluorophenyl)-14-methyl-10,13,14,16,17,18-hexahydro-15,2-(azeno)-8,4-(metheno)cyclopenta[h][1,6,10,12]oxatriazacycloheptadecine], the IC50 under setting [2] was 13 nM.
On to `N#Cc1ccc2cc1OCCCNc1nc(nc3c1CCC3c1ccc(F)cc1F)N2` (centres unmarked) [Example 33B, 7-cyano-17-(2,4-difluorophenyl)-11,12,13,15,16,17-hexahydro-10H-14,2-(azeno)-8,4-(metheno)cyclopenta[g][1,5,9,14]oxatriazacyclohexadecine], for which the half-maximal inhibitory concentration (IC50) under setting [2] was determined as 37 nM.
For `Clc1cn(-c2ccc3cc2OCC=CCCc2nc(nc4c2CCC4c2ccccc2)N3)cn1` (centres unmarked) [Example 17A, (11E)-7-(4-chloro-1H-imidazol-1-yl)-18-phenyl-10,13,14,16,17,18-hexahydro-15,2-(azeno)-8,4-(metheno)cyclopenta[h][1,10,12]oxadiazacycloheptadecine], the IC50 under setting [4] was 5.6 nM.
Take `Clc1cn(-c2ccc3cc2OC/C=C\CCc2nc(nc4c2CCC4c2ccccc2)N3)cn1` (single isomer, unassigned) [Example 16A, (11Z)-7-(4-chloro-1H-imidazol-1-yl)-18-phenyl-10,13,14,16,17,18-hexahydro-15,2-(azeno)-8,4-(metheno)cyclopenta[h][1,10,12]oxadiazacycloheptadecine]: the IC50 under setting [3] is less than 10 nM.
For `CC1C/C=C\COc2cc(ccc2-n2cnc(Cl)c2)Nc2nc(c3c(n2)C(c2ccccc2)CC3)N1` (centres unmarked) [Example 6A, (11Z)-7-(4-chloro-1H-imidazol-1-yl)-14-methyl-19-phenyl-3,10,13,14,15,17,18,19-octahydro-2,16-(azeno)-8,4-(metheno)cyclopenta[j][1,7,9,13]oxatriazacyclooctadecine], the concentration for half-maximal inhibition (IC50) under setting [2] turned out to be 3.6 nM.
In the case of `N#Cc1ccc2cc1OCCNCCNc1nc(nc3c1CCC3c1ccc(F)cc1)N2` (single isomer, unassigned) [Example 26B, 7-cyano-19-(4-fluorophenyl)-11,12,13,14,15,17,18,19-octahydro-10H-16,2-(azeno)-8,4-(metheno)cyclopenta[i][1,4,7,11,13]oxatetraazacyclooctadecine], under setting [3], the half-inhibitory concentration (IC50) lay within 100 to 1000 nM.
Turning to `CN1CCCCOc2cc(ccc2C#N)Nc2nc3c(c1n2)CCC3c1ccccc1` (single isomer, unassigned) [Example 34B, 7-cyano-14-methyl-18-phenyl-10,11,12,13,14,16,17,18-octahydro-15,2-(azeno)-8,4-(metheno)cyclopenta[h][1,6,10,12]oxatriazacycloheptadecine], the IC50 under setting [4] worked out at 160 nM.
In the case of `Cc1ncn(-c2ccc3cc2OCCCCCc2nc(nc4c2CCC4c2ccccc2)N3)n1` (centres unmarked) [Example 62B, 7-(3-methyl-1H-1,2,4-triazol-1-yl)-18-phenyl-10,11,12,13,14,16,17,18-octahydro-15,2-(azeno)-8,4-(metheno)cyclopenta[h][1,10,12]oxadiazacycloheptadecine], the IC50 under setting [2] was 22 nM.
As for `Cc1ncnn1-c1ccc2cc1OCC=CCNc1nc(nc3c1CCC3c1ccc(F)cc1F)N2` (centres unmarked) [Example 54A, (11E)-18-(2,4-difluorophenyl)-7-(5-methyl-1H-1,2,4-triazol-1-yl)-10,13,14,16,17,18-hexahydro-15,2-(azeno)-8,4-(metheno)cyclopenta[h][1,6,10,12]oxatriazacycloheptadecine], the IC50 under setting [3] is less than 10 nM.
Still for that read-out and setting: for `Fc1ccc(C2CCc3c4nc(nc32)Nc2ccc(-n3cnc(Cl)c3)c(c2)OCC=CCN4)c(F)c1` (centres unmarked) [Example 14B, (11Z)-7-(4-chloro-1H-imidazol-1-yl)-18-(2,4-difluorophenyl)-10,13,14,16,17,18-hexahydro-15,2-(azeno)-8,4-(metheno)cyclopenta[h][1,6,10,12]oxatriazacycloheptadecine] the value was 10 to 100 nM.
Same read-out and setting: for `CN1CCNc2nc(nc3c2CCC3c2ccc(F)cc2)Nc2ccc(C#N)c(c2)OCC1` (single isomer, unassigned) [Example 27B, 7-cyano-19-(4-fluorophenyl)-12-methyl-11,12,13,14,15,17,18,19-octahydro-10H-16,2-(azeno)-8,4-(metheno)cyclopenta[i][1,4,7,11,13]oxatetraazacyclooctadecine] the value was 100 to 1000 nM.
